# Results from PMC12186263, “Molecular Basis for Peptide Nitration by a Novel Cytochrome P450 Enzyme in RiPP Biosynthesis” (ACS Catalysis, 2025).
# Experiments:
# ferrous RufO = assay: Stopped-flow transient kinetics of O2 and •NO binding to ferrous RufO; conditions: for association rate constant k1: 3.3 μM ferrous RufO; for association rate constant k1 / dissociation rate constant k2 (y-intercept): pH 8.0, linear fit
# Protocol: 5 Transient kinetics of ferrous RufO binding to O2 and ^•NO. Spectral changes following the rapid mixing of 3.3 μM ferrous RufO bound to MRYLH with (A) 18 μM O2 and (C) 70 μM ^•NO over 0.2 s. The black-to-red spectral transitions represent the formation of (A) a ferric-superoxo intermediate and (C) a ferrous-nitrosyl complex. Insets show the time-dependent absorbance changes at 438 nm (the most pronounced shift), fitted using single exponential equations to determine rate constants (red trace). Dependence of rate constant as a function of gas concentration on (B) O2 and (D) ^•NO binding to ferrous RufO alone (blue) and peptide-bound RufO (red). Second-order rate constants were determined through linear fitting. TEXT PRINTED IN THE PICTURE: (A) + O2: kobs = 74.3 s^-1 | (B) RufO alone: k1 = 3.55 μM^-1 s^-1 | (B) peptide-bound: k1 = 3.83 μM^-1 s^-1 | (C) + •NO: kobs = 107.4 s^-1 | (D) RufO alone: k1 = 4.12 μM^-1 s^-1 | (D) peptide-bound: k1 = 2.35 μM^-1 s^-1
# Stopped-flow spectroscopic data were collected using an Applied Photophysics SX20 stopped-flow system equipped with a photodiode array detector. The system was maintained in an anaerobic chamber (O2 < 1 ppm) and all sample preparation was done anaerobically. Measurements were performed at 4 °C. All samples were prepared in a buffer containing 50 mM Tris-HCl and 100 mM NaCl, pH 8.0. RufO was prereduced with a minimal amount of sodium dithionite. The final mixed concentrations of RufO and MRYLH (where applicable) were 3.3 and 24 μM, respectively. Solutions of varying O2 concentrations were prepared by diluting air-saturated buffer with anaerobic buffer. The concentrations of O2 in the air-saturated buffer were measured with an Oxygraph+ oxygen electrode (Hansatech). To generate ^•NO-containing solutions, 0.5 mM DEA NONOate (≥98%, Cayman Chemical) was incubated in anaerobic buffer for 4 h to ensure complete ^•NO release. The ^•NO concentrations were quantified based on a hemoglobin assay, and further dilutions were made with anaerobic buffer immediately prior to mixing. Experimental data were analyzed by the ProK software package from Applied Photophysics. The second-order rate constants were obtained from linear fitting, with the resulting equations: y = 3.55x + 54.4 for the mixing of RufO with O2, y = 3.83x + 6.5 for the ES complex with O2, y = 4.12x −158.0 for RufO with ^•NO, and y = 2.35x – 58.9 for the ES complex with ^•NO.
# Figure S9. Transient kinetics of ferrous RufO alone binding to O2 and •NO Spectral changes following the rapid mixing of 3.3 μM ferrous RufO with (A) 18 μM O 2 and […] superoxo intermediate and (B) a ferrous-nitrosyl complex. Insets show the time-dependent absorbance changes at 438 nm (the most pronounced shift), fitted using first-order exponential equations to determine rate constants (red trace).
# (1 picture or pasted object on this page, not shown here)
# RufO [1] = biological target: T1, RufO (Streptomyces atratus, UniProt A0A224AU14); assay: LC-MS of single-turnover RufO reaction with sequential O2 and •NO addition; type: biochemical; conditions: 100 μM pre-reduced RufO, 150 μM MRYLH, 150 μM O2 30 s then 150 μM •NO 30 s, 50 mM ammonium acetate pH 7.5
# T1 construct: made in house
# T1 sequence (A0A224AU14 1-394): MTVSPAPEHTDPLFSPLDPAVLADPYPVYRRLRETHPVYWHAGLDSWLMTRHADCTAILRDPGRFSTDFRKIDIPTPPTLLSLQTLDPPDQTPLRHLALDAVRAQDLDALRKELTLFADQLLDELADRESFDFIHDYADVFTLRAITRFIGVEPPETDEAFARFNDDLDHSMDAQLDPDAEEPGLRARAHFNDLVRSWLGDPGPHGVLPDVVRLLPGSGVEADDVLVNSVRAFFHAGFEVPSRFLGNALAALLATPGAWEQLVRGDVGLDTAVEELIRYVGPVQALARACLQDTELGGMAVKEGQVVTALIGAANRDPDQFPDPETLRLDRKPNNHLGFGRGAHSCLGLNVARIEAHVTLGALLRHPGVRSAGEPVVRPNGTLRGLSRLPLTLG
# TxtE = biological target: T2, TxtE (Streptomyces scabiei, UniProt C9ZDC6); conditions: Trp-bound TxtE; reported, ref number not given; cited from earlier work
# T2 sequence (C9ZDC6 1-406): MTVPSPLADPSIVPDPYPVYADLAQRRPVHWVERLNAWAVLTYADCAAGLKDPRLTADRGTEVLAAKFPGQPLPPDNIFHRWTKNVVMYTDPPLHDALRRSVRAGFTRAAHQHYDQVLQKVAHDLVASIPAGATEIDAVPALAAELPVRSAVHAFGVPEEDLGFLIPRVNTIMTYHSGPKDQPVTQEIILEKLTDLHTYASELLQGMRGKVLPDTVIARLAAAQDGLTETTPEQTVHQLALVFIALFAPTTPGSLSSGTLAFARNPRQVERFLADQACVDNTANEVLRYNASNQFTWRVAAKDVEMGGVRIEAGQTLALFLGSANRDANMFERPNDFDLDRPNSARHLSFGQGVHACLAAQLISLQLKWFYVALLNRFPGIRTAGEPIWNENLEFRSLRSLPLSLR
# RufO [2] = biological target: T1, RufO; conditions: spectroscopic and structural analyses; ref number not given; cited from earlier work
# From the text: Recent studies on a nitrating CYP have showcased collective efforts to uncover a novel enzymatic function in RiPP biosynthesis. Nitration is a biologically significant transformation that modifies the function, stability, and reactivity of proteins and other biomolecules. − While most biological nitration processes are known to proceed through less specific reactions involving peroxynitrite and other nitrative reactive species, , biocatalytic nitration is rare and underexplored. The first example was reported for TxtE in thaxtomin biosynthesis, which catalyzes the direct nitration of L-trypto ...
# RufO [3] = biological target: T1, RufO; conditions: recent report, ref number not given; cited from earlier work
# From the text: The integration of spectroscopic and structural characterization allows us to elucidate the molecular mechanism of substrate recognition and nitration activity in RufO. Our findings provide important insights into the catalytic process, enabling us to propose a mechanistic model for RufO-mediated peptide nitration (Figure S13). In its resting state, RufO adopts a six-coordinate, low-spin heme configuration with a water molecule as the distal ligand. While its heme environment is spectroscopically similar to that of typical CYPs, the flexibility of the B/C loop and the F and G helices contribut ...
# [4] = peptide-bound ferrous RufO + O2, 4 °C, pH 8.0
compound,measurement,setting,value
O=O [O2],kobs,"ferrous RufO; MRYLH-bound ferrous RufO 3.3 μM, 18 μM O2, 438 nm, single exponential, 4 °C",74.3 s⁻¹
same,association rate constant k1,"ferrous RufO; MRYLH-bound, 24 μM MRYLH, 4 °C",3.83 μM^–1 s^–1
same,association rate constant k1,"ferrous RufO; RufO alone, 4 °C",3.55 μM^–1 s^–1
same,dissociation rate constant k2 (y-intercept),"ferrous RufO; RufO alone, 4 °C",54.4 s^–1
same,O2 binding faster than •NO (times),"ferrous RufO; in the presence of the peptide, ratio of k1",1.6 times
same,dissociation rate constant k2 (y-intercept),"ferrous RufO; peptide-bound RufO, 4 °C",6.5 s^–1
same,ferric-superoxo intermediate stable for up to,ferrous RufO; [4],up to 100 s
same,time of peak of ferric-superoxo intermediate,ferrous RufO; [4],approximately 0.05 s
same,"product yield, O2-first vs reverse order",RufO [1],approximately double the product yield
same,k1 of O2 binding,TxtE,4.43 μM^–1 s^–1
"N[C@@H](Cc1ccc(O)cc1)C(=O)O [Tyr, L-tyrosine]","binding to RufO, in words",RufO [2],unable to bind
MRFLH,"nitration by RufO, in words",RufO [3],RufO cannot nitrate
